Data published in PMC6581572 (ChemMedChem, 2019).
Where two headings read alike, the source gives them in different places.

What was measured:
IAV endonuclease = IAV endonuclease (Influenza A virus, UniProt C3W5S0); test: High throughput endonuclease assay; format: biochemical, influenza A/California/04/09 H1N1; details: for LE kcal/(mol·NHA): ligand efficiency, Tables 1 and 2
[1] = test system: influenza A/Puerto Rico/08/1934 H1N1 expressing mCherry (PR8-mCherry); details: read-out: EC50, antiviral activity; cellular assay, previously reported; cited from earlier work
[2] = Chemical stability of the isolated compound; format: physicochemical; details: isolated tetrazole product, two synthetic routes

Row | Compound | LE kcal/(mol·NHA) (IAV endonuclease; LE = −RTln(IC50)/NHA) | IC50 (IAV endonuclease) [µM] | other results
1 | N#Cc1ccc(-c2cc(O)c(=O)[nH]c2-c2ccc(F)cc2)cc1 [Compound 1] | 0.409 kcal/(mol·NHA) |  | 
2 | O=c1[nH]c(-c2ccc(F)cc2)c(-c2ccc(-c3nnn[nH]3)cc2)cc1O [Compound 2] |  |  | EC50 [1]: 11 µM
3 | N#Cc1ccc(-c2[nH]c(=O)c(O)cc2-c2ccc(F)cc2)cc1 [Compound 6] | 0.433 kcal/(mol·NHA) |  | 
4 | O=c1[nH]c(-c2ccc(-c3nnn[nH]3)cc2)c(-c2ccc(F)cc2)cc1O [Compound 7] | 0.403 kcal/(mol·NHA) |  | 
5 | N#Cc1ccc(-c2cc(O)c(=O)[nH]c2-c2cccc3ccccc23)cc1 [Compound 8, 4-(5-Hydroxy-2-(naphthalen-1-yl)-6-oxo-1,6-dihydropyridin-3-yl)benzonitrile] | 0.351 kcal/(mol·NHA) | 0.22 | 
6 | O=c1[nH]c(-c2cccc3ccccc23)c(-c2ccc(-c3nnn[nH]3)cc2)cc1O [Compound 9, 5-(4-(1H-Tetrazol-5-yl)phenyl)-3-hydroxy-6-(naphthalen-1-yl)pyridin-2(1H)-one] | 0.354 kcal/(mol·NHA) |  | 
7 | N#Cc1ccc(-c2cc(O)c(=O)[nH]c2-c2ccc3ccccc3c2)cc1 [Compound 10, 4-(5-Hydroxy-2-(naphthalen-2-yl)-6-oxo-1,6-dihydropyridin-3-yl)benzonitrile] | 0.330 kcal/(mol·NHA) |  | 
8 | O=C(O)c1ccc(-c2cc(O)c(=O)[nH]c2-c2ccc(F)cc2)cc1 [Compound 11, 4-(2-(4-Fluorophenyl)-5-hydroxy-6-oxo-1,6-dihydropyridin-3-yl)benzoic acid] | 0.455 kcal/(mol·NHA) | 0.011 | 
9 | COC(=O)c1ccc(-c2cc(O)c(=O)[nH]c2-c2ccc(F)cc2)cc1 [Compound 12, Methyl 4-(2-(4-fluorophenyl)-5-hydroxy-6-oxo-1,6-dihydropyridin-3-yl)benzoate] |  | 0.125 | 
10 | Cn1nnnc1-c1ccc(-c2cc(O)c(=O)[nH]c2-c2ccc(F)cc2)cc1 [Compound 13, 6-(4-Fluorophenyl)-3-hydroxy-5-(4-(1-methyl-1H-tetrazol-5-yl)phenyl)pyridin-2(1H)-one] | 0.331 kcal/(mol·NHA) | 0.298 | 
11 | Cn1nnc(-c2ccc(-c3cc(O)c(=O)[nH]c3-c3ccc(F)cc3)cc2)n1 [Compound 14, 6-(4-Fluorophenyl)-3-hydroxy-5-(4-(2-methyl-2H-tetrazol-5-yl)phenyl)pyridin-2(1H)-one] | 0.348 kcal/(mol·NHA) | 0.138 | 
12 | NS(=O)(=O)c1ccc(-c2cc(O)c(=O)[nH]c2-c2ccc(F)cc2)cc1 [Compound 15, 4-(2-(4-Fluorophenyl)-5-hydroxy-6-oxo-1,6-dihydropyridin-3-yl)benzenesulfonamide] | 0.354 kcal/(mol·NHA) | 0.347 | 
13 | CC(=O)NS(=O)(=O)c1ccc(-c2cc(O)c(=O)[nH]c2-c2ccc(F)cc2)cc1 [Compound 16, N-((4-(2-(4-Fluorophenyl)-5-hydroxy-6-oxo-1,6-dihydropyridin-3-yl)phenyl)sulfonyl)acetamide] | 0.335 kcal/(mol·NHA) | 0.145 | 
14 | O=c1[nH]c(-c2ccc(F)cc2)c(-c2ccc(-c3cnn[nH]3)cc2)cc1O [Compound 17, 5-(4-(1H-1,2,3-Triazol-5-yl)phenyl)-6-(4-fluorophenyl)-3-hydroxypyridin-2(1H)-one] | 0.401 kcal/(mol·NHA) | 0.025 | 
15 | N#Cc1ccc(-c2cc(O)c(=O)[nH]c2Cc2ccc(F)cc2)cc1 [Compound 18, 4-(2-(4-Fluorobenzyl)-5-hydroxy-6-oxo-1,6-dihydropyridin-3-yl)benzonitrile] | 0.360 kcal/(mol·NHA) | 0.507 | 
16 | N#Cc1ccc(-c2cc(O)c(=O)[nH]c2Cc2cccc3ccccc23)cc1 [Compound 19, 4-(5-Hydroxy-2-(naphthalen-1-ylmethyl)-6-oxo-1,6-dihydropyridin-3-yl)benzonitrile] | 0.353 kcal/(mol·NHA) | 0.114 | 
17 | N#Cc1ccc(-c2cc(O)c(=O)[nH]c2Cc2ccc3ccccc3c2)cc1 [Compound 20, 4-(5-Hydroxy-2-(naphthalen-2-ylmethyl)-6-oxo-1,6-dihydropyridin-3-yl)benzonitrile] | 0.314 kcal/(mol·NHA) | 0.66 | 
18 | O=c1[nH]c(Cc2ccc(F)cc2)c(-c2ccc(-c3nnn[nH]3)cc2)cc1O [Compound 21, 5-(4-(1H-Tetrazol-5-yl)phenyl)-6-(4-fluorobenzyl)-3-hydroxypyridin-2(1H)-one] | 0.385 kcal/(mol·NHA) | 0.026 | 
19 | O=c1[nH]c(Cc2cccc3ccccc23)c(-c2ccc(-c3nnn[nH]3)cc2)cc1O [Compound 22, 5-(4-(1H-Tetrazol-5-yl)phenyl)-3-hydroxy-6-(naphthalen-1-ylmethyl)pyridin-2(1H)-one] | 0.358 kcal/(mol·NHA) |  | 
20 | O=c1[nH]c(Cc2ccc3ccccc3c2)c(-c2ccc(-c3nnn[nH]3)cc2)cc1O [Compound 23, 5-(4-(1H-Tetrazol-5-yl)phenyl)-3-hydroxy-6-(naphthalen-2-ylmethyl)pyridin-2(1H)-one] | 0.328 kcal/(mol·NHA) |  | 
21 | O=C(O)c1ccc(-c2[nH]c(=O)c(O)cc2-c2ccc(F)cc2)cc1 [Compound 24, 4-(3-(4-Fluorophenyl)-5-hydroxy-6-oxo-1,6-dihydropyridin-2-yl)benzoic acid] | 0.415 kcal/(mol·NHA) | 0.055 | 
22 | N#Cc1ccc(-c2[nH]c(=O)c(O)cc2Cc2ccc(F)cc2)cc1 [Compound 25, 4-(3-(4-Fluorobenzyl)-5-hydroxy-6-oxo-1,6-dihydropyridin-2-yl)benzonitrile] | 0.361 kcal/(mol·NHA) | 0.484 | 
23 | N#Cc1ccc(-c2[nH]c(=O)c(O)cc2Cc2cccc3ccccc23)cc1 [Compound 26, 4-(5-Hydroxy-3-(naphthalen-1-ylmethyl)-6-oxo-1,6-dihydropyridin-2-yl)benzonitrile] | 0.343 kcal/(mol·NHA) | 0.173 | 
24 | N#Cc1ccc(-c2[nH]c(=O)c(O)cc2Cc2ccc3ccccc3c2)cc1 [Compound 27, 4-(5-Hydroxy-3-(naphthalen-2-ylmethyl)-6-oxo-1,6-dihydropyridin-2-yl)benzonitrile] | 0.335 kcal/(mol·NHA) | 0.25 | 
25 | O=c1[nH]c(-c2ccc(-c3nnn[nH]3)cc2)c(Cc2ccc(F)cc2)cc1O [Compound 28, 6-(4-(1H-Tetrazol-5-yl)phenyl)-5-(4-fluorobenzyl)-3-hydroxypyridin-2(1H)-one] | 0.369 kcal/(mol·NHA) | 0.054 | 
26 | O=c1[nH]c(-c2ccc(-c3nnn[nH]3)cc2)c(Cc2cccc3ccccc23)cc1O [Compound 29, 6-(4-(1H-Tetrazol-5-yl)phenyl)-3-hydroxy-5-(naphthalen-1-ylmethyl)pyridin-2(1H)-one] | 0.362 kcal/(mol·NHA) |  | 
27 | O=c1[nH]c(-c2ccc(-c3nnn[nH]3)cc2)c(Cc2ccc3ccccc3c2)cc1O [Compound 30, 6-(4-(1H-Tetrazol-5-yl)phenyl)-3-hydroxy-5-(naphthalen-2-ylmethyl)pyridin-2(1H)-one] | 0.324 kcal/(mol·NHA) |  | 
28 | O=C(O[C@@H]1Cc2c(O)cc(O)cc2O[C@@H]1c1cc(O)c(O)c(O)c1)c1cc(O)c(O)c(O)c1 [epigallocatechin gallate, reference compound] |  |  | ligand efficiency of reference inhibitor (IAV endonuclease; LE = −RTln(IC50)/NHA): 0.249 kcal/(mol·NHA); IC50 (IAV endonuclease; read-out: IC50 of reference inhibitor in this assay, green tea catechin): 1 µM
29 | O=c1[nH]c(-c2ccc3ccccc3c2)c(-c2ccc(-c3nn[nH]n3)cc2)cc1O [tetrazole derivative of 10, 6-(2-naphthyl)-5-(p-(5-tetrazoyl)phenyl)-3-hydroxypyridin-2(1H)-one] |  |  | Stability of the isolated product [2]: unexpectedly unstable
